Measurements published in US20090130118A1, “SCUTELLARIA BARBATA EXTRACT AND COMBINATIONS FOR THE TREATMENT OF CANCER” (BIONOVO, INC., priority 2007, published 2009).

Tests used:
human tumor xenographs = settings: doses from 0.75 mg/kg/day to 1.5 mg/kg/day; cited from earlier work
aromatase = biological target: T1, aromatase (Homo sapiens, UniProt P11511); settings: in vivo studies; cited from earlier work
T1 sequence (P11511 1-503): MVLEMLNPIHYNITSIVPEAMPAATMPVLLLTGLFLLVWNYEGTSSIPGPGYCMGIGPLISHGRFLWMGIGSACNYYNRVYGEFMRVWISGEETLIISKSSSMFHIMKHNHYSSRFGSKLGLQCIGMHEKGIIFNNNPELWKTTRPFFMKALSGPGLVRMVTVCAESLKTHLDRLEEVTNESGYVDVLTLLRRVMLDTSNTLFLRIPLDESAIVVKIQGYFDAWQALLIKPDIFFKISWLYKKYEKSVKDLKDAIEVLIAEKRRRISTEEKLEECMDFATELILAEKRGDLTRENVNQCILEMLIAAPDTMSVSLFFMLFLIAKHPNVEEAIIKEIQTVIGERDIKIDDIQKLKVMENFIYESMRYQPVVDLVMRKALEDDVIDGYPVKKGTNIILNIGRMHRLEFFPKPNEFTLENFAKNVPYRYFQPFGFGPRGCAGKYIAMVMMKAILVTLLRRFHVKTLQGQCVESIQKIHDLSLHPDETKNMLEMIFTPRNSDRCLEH

estrogen receptor = biological target: T2, estrogen receptor (Homo sapiens, UniProt P03372); settings: cited from earlier work
T2 sequence (P03372 1-595): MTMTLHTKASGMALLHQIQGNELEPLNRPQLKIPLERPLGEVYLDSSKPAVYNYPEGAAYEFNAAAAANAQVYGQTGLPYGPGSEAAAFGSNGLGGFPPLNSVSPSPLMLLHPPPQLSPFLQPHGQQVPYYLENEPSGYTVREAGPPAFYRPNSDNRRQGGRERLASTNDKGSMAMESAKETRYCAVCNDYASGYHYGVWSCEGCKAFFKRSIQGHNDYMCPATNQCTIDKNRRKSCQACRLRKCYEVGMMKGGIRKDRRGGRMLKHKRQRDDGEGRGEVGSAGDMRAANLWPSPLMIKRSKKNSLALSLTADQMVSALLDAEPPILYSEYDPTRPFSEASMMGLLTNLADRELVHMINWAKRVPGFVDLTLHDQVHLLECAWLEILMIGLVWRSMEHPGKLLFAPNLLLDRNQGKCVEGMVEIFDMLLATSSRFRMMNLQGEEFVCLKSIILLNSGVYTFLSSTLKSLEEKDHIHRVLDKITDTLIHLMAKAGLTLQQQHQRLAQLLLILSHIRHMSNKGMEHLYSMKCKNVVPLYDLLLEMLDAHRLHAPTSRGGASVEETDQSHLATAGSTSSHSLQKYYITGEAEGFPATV

estrogen receptors = settings: compared with estrodiol; cited from earlier work
GnHR receptor = biological target: T3, GnHR receptor (Homo sapiens, UniProt P30968); settings: in vivo studies; cited from earlier work
T3 sequence (P30968 1-328): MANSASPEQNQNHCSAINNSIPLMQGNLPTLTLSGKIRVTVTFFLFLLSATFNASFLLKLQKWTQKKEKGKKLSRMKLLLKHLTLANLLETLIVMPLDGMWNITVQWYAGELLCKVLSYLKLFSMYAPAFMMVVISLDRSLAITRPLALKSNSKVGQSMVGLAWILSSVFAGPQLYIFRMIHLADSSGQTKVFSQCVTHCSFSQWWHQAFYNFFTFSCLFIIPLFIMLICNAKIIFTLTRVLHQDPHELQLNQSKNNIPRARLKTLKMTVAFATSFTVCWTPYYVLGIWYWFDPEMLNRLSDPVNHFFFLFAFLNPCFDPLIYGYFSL

ETBR = biological target: T4, ETBR (Homo sapiens, UniProt P24530); settings: cited from earlier work
T4 sequence (P24530 27-442): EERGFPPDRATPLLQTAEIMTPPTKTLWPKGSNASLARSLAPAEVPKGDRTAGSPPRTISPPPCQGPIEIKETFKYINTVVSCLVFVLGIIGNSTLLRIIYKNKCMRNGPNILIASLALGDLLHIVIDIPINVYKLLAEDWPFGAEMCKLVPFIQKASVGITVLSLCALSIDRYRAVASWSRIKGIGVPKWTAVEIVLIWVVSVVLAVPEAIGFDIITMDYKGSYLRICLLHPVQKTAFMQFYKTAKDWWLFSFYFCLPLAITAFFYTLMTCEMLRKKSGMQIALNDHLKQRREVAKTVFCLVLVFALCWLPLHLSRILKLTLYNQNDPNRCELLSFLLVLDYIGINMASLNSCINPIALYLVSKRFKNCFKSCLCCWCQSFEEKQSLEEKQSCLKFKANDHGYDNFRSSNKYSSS

ETAR = biological target: T5, ETAR (Homo sapiens, UniProt P25101); settings: cited from earlier work
T5 sequence (P25101 21-427): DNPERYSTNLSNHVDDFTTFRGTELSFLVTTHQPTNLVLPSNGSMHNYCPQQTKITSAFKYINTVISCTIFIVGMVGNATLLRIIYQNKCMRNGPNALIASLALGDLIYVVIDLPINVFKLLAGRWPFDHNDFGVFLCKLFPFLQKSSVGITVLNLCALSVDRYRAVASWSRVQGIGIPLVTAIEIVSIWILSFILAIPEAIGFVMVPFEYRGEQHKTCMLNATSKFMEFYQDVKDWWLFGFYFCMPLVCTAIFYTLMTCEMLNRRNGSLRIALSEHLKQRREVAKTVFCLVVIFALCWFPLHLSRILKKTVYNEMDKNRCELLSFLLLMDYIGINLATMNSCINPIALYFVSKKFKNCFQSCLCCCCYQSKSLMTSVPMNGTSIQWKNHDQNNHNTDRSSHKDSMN

[1] = test system: subcutaneous cancer xenografts; test: Mouse xenograft model, oral administration; type: in vivo; settings: BZL101 0.5 ml oral gavage every third day; cyclophosphamide 25 mg/Kg/day in drinking water; FIG. 6
Experimental: As in Example 1, above, 10^5 cells were administered to each animal subcutaneously on Day 0. The animals were divided into four groups. The control group received only normal drinking water. The cyclophosphamide only group received 25 mg/Kg/day of cyclophosphamide in their drinking water.

COc1cc2c(Oc3ccc4[nH]c(C)cc4c3F)ncnc2cc1OCCCN1CCCC1 [AZD 2171]
tumor angiogenesis (human tumor xenographs): inhibited tumor angiogenesis

CC(C)(C#N)c1cc(Cn2cncn2)cc(C(C)(C)C#N)c1 [Anastrozole]
serum estradiol concentrations (aromatase): significantly lowers serum estradiol concentrations

C[C@]12CC[C@@H]3c4ccc(O)cc4C[C@@H](CCCCCCCCC[S+]([O-])CCCC(F)(F)C(F)(F)F)[C@H]3[C@@H]1CC[C@@H]2O (stereo partly drawn) [Fulvestrant]
effect on estrogen receptor level (estrogen receptor): downregulates and degrades the estrogen receptor
affinity for estrogen receptors (estrogen receptors): affinity that is similar to that of estrodiol

CC(C)C[C@H](NC(=O)[C@@H](COC(C)(C)C)NC(=O)[C@H](Cc1ccc(O)cc1)NC(=O)[C@H](CO)NC(=O)[C@H](Cc1c[nH]c2ccccc12)NC(=O)[C@H](Cc1cnc[nH]1)NC(=O)[C@@H]1CCC(=O)N1)C(=O)N[C@@H](CCCNC(=N)N)C(=O)N1CCC[C@H]1C(=O)NNC(N)=O [Goserelin]
production of FSH and LH and sex hormones, initial effect (GnHR receptor): initial increase in production of FSH and LH
time after which the receptor is downregulated and LH or FSH levels fall (GnHR receptor): 14 to 21 days

COc1nc(C)cnc1NS(=O)(=O)c1cccnc1-c1ccc(-c2nnco2)cc1 [ZD4054]
effect on ETBR (ETBR): no detectable effect on ETBR
binding to ETAR (ETAR): only binds to ETAR

O=P1(N(CCCl)CCCl)NCCCO1 (stereo not drawn) [cyclophosphamide]
tumor growth in xenograft [1]: inhibited tumor growth as compared to the control
